Measured values published in patent US9096518B2, “Substituted hydroxamic acids and uses thereof” (Millennium Pharmaceuticals, Inc., priority 2009, dated 2015).

biological target: T1, purified human HDAC6 (Homo sapiens, UniProt Q9UBN7); experiment: HDAC6 Enzyme Assay; assay type: biochemical
T1 construct: purchased BPS Bioscience 5006
T1 sequence (Q9UBN7 1-1215): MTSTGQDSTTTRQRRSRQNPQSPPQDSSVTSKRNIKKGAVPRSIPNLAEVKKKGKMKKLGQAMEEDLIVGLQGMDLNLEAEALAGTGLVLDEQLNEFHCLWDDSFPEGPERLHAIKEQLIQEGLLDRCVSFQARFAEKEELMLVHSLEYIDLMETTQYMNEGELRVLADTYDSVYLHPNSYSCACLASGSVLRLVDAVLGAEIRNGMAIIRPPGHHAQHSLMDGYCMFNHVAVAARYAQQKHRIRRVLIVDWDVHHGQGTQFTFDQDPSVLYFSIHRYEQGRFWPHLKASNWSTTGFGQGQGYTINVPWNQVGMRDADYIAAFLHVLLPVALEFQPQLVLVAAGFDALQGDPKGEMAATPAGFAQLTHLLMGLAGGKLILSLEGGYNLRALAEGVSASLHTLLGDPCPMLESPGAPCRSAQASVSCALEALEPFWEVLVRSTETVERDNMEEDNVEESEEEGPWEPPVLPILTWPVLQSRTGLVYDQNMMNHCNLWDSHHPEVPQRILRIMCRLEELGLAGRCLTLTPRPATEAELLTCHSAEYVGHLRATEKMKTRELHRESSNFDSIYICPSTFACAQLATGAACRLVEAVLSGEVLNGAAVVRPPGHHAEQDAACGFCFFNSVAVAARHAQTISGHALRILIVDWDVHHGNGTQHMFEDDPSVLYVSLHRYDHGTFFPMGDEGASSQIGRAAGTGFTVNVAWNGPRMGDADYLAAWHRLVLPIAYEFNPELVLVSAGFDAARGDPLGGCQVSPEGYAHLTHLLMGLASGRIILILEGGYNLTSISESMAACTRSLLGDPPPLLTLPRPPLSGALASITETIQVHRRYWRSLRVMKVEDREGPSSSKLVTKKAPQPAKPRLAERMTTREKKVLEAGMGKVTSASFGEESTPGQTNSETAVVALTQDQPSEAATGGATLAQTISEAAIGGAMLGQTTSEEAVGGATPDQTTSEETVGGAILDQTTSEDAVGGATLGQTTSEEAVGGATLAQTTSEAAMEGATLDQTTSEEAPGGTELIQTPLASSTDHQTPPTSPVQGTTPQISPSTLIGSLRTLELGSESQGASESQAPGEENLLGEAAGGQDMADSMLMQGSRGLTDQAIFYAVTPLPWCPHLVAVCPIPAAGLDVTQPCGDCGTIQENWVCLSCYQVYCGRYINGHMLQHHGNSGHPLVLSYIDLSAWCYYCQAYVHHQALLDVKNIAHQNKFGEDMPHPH
In short: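 Purified human HDAC6 incubated 1 h at 30 °C with Ac-Arg-Gly-Lys(Ac)-AMC peptide and compound; reaction stopped with trichostatin A, then trypsin releases AMC, read by fluorescence (Ex 340/Em 460 nm). IC50 from concentration-response curves relative to DMSO controls.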

Row | IC50 | SMILES
1 | 100 to 500 nM | O=C(NO)c1ccc2c(c1)CCCN(C(=O)Cc1csc3ccc(Cl)cc13)C2 [Compound 251, 2-[(5-chloro-1-benzothien-3-yl)acetyl]-N-hydroxy-2,3,4,5-tetrahydro-1H-2-benzazepine-7-carboxamide]
2 | 100 to 500 nM | O=C(NO)c1ccc2c(c1)CCCN(C(=O)c1ccc3occc3c1)C2 [Compound 252, 2-(1-benzofuran-5-ylcarbonyl)-N-hydroxy-2,3,4,5-tetrahydro-1H-2-benzazepine-7-carboxamide]
3 | < 50 nM | Cc1ccc2[nH]c(C(=O)N3CCCc4cc(C(=O)NO)ccc4C3)cc2c1 [Compound 253, N-hydroxy-2-[(5-methyl-1H-indol-2-yl)carbonyl]-2,3,4,5-tetrahydro-1H-2-benzazepine-7-carboxamide]
4 | 100 to 500 nM | CC(=O)N/C(=C\c1ccccc1)C(=O)N1CCCc2cc(C(=O)NO)ccc2C1 [Compound 254, 2-[(2Z)-2-(acetylamino)-3-phenylprop-2-enoyl]-N-hydroxy-2,3,4,5-tetrahydro-1H-2-benzazepine-7-carboxamide]
5 | 100 to 500 nM | O=C(NO)c1ccc2c(c1)CCCN(C(=O)c1cnc3ccccc3c1)C2 [Compound 255, N-hydroxy-2-(quinolin-3-ylcarbonyl)-2,3,4,5-tetrahydro-1H-2-benzazepine-7-carboxamide]
6 | 100 to 500 nM | CC(=O)Nc1cc(NC(C)=O)cc(C(=O)N2CCCc3cc(C(=O)NO)ccc3C2)c1 [Compound 256, 2-[3,5-bis(acetylamino)benzoyl]-N-hydroxy-2,3,4,5-tetrahydro-1H-2-benzazepine-7-carboxamide]
7 | 50 to 100 nM | O=C(NO)c1ccc2c(c1)CCCN(C(=O)c1cc3cc(Cl)ccc3o1)C2 [Compound 257, 2-[(5-chloro-1-benzofuran-2-yl)carbonyl]-N-hydroxy-2,3,4,5-tetrahydro-1H-2-benzazepine-7-carboxamide]
8 | 100 to 500 nM | O=C(NO)c1ccc2c(c1)CCCN(C(=O)c1csc3ccccc13)C2 [Compound 258, 2-(1-benzothien-3-ylcarbonyl)-N-hydroxy-2,3,4,5-tetrahydro-1H-2-benzazepine-7-carboxamide]
9 | > 500 nM | Cc1cc(C)c(C(=O)N2CCCc3cc(C(=O)NO)ccc3C2)c(C)c1 [Compound 259]
10 | 100 to 500 nM | O=C(NO)c1ccc2c(c1)CCCN(C(=O)c1cccs1)C2 [Compound 260, N-hydroxy-2-(2-thienylcarbonyl)-2,3,4,5-tetrahydro-1H-2-benzazepine-7-carboxamide]
11 | > 500 nM | O=C(NO)c1ccc2c(c1)CCCN(C(=O)c1cc(C(F)(F)F)cc(C(F)(F)F)c1)C2 [Compound 261]
